According to patent publication US5877166A, “Enantiomerically pure 2-aminopurine phosphonate nucleotide analogs as antiviral agents” (priority 1997, dated 1999):
Values after ≈ are worked out from the molar mass of the structure shown. Where two headings read alike, the source gives them in different places.

How the values were obtained:
[1] = system: uninfected BALB/c mice; experiment: Toxicity to uninfected BALB/c mice; assay type: in vivo; conditions: for Kidney Damage (%) / Survivors/Total: once daily for 15 days; for Weight Change: between day 0 and day 16
Source text: (§1) Toxicity of 1-5 to uninfected BALB/c mice.
(§2) ^a Treatments were given once daily for 15 days.
(§3) ^b Difference in weight (in grams) between day 0 and day 16.

[2] = Toxicity to uninfected BALB/c mice; assay type: in vivo; conditions: mouse, in vivo, once daily for 15 days, read-out: Survivors (%)
Source text: as §1, §2, §3

[3] = system: murine cytomegalovirus; experiment: Activity against a murine cytomegalovirus infection in normal BALB/c mice; assay type: in vivo
Description: Activities of 1-5 and 1-6
Against a murine cytomegalovirus infection
^a Treatments were given once daily for 5 days starting 24 hours afte

[4] = in vitro; assay type: cell-based; conditions: human, mrc-5 cells
Description: The herpes strain employed was Strain D-16 of HCMV. Continuous passaged MRC-5 cells obtained from the American Type Culture Collection (Bethesda, Md.) were used for testing, with growth medium consisting of Minimum Essential Medium (MEM) supplemented with 0.1% NaHCO3 and […] gentamicin.
To a 96-well microtiter plate containing an established 24-hour monolayer of cells from which the medium had been decanted was added 0.1 mL of varying (one-half log10) concentration of test compound, which incubated on the cell 15 minutes, after which 0.1 mL of virus in a concentration of 320 cell culture 50% infectious doses (CCID50)/0.1 mL was added. The plate was covered with plastic wrap and incubated at 37° C. The cells were examined microscopically after 72 hours. The ED50 (the median effective antiviral dose, i.e., that dose which is effective in 50% of the cells), CD50 (the median cytotoxic dose, i.e., that dose which produces cytotoxicity in 50% of the cells), and TI (the therapeutic index, meaning the ratio of the median cytotoxic dose to the median effective dose) were evaluated.

[5] = system: HCMV, Strain D-16; experiment: Antiviral activity (plaque reduction) vs. HCMV, Strain D-16 in MRC-5 cells; assay type: cell-based, human cytomegalovirus (HCMV); conditions: for TI (therapeutic index, ratio of the median cytotoxic dose to the median effective dose): CD50/ED50, 4320 min; for inhibition at 1 µg/mL / inhibition at 3.2 µg/mL / inhibition at 10 µg/mL / inhibition at 32 µg/mL / inhibition at 100 µg/mL / inhibition at 316 µg/mL: Human betaherpesvirus 5, MRC5, 72 h, read-out: % Reduction (plaques); for EC50: Human betaherpesvirus 5, MRC5, 72 hours, MRC-5 cells, read-out: ED50 (median effective antiviral dose)
[6] = 5 mg/kg/day, once daily for 5 days
[7] = 10 mg/kg/day, once daily for 5 days
[8] = 20 mg/kg/day, once daily for 5 days
[9] = 40 mg/kg/day, once daily for 5 days
[10] = 40 mg/kg/day, once daily for 5 days starting 24 hours after virus challenge

For `Nc1ncc2ncn(CO[C@@H](CO)CCP(=O)(O)O)c2n1` [Compound 1-5, 2-Amino-9-[(R(-)-1-hydroxymethyl-3-phosphono)-1-propyloxymethyl]-9H-purine], the “Kidney Damage (%)” value ([1]; 100 mg/kg/day) was 0%, the Survivors/Total ([1]; 100 mg/kg/day) was 3/3 and the “Weight Change” value ([1]; 100 mg/kg/day) was “+7.0 grams”. For the same molecule, the “Kidney Damage (%)” value ([1]; 200 mg/kg/day) was 0%, the Survivors/Total ([1]; 200 mg/kg/day) was 3/3 and the “Weight Change” value ([1]; 200 mg/kg/day) was “+7.8 grams”. The “Kidney Damage (%)” value ([1]; 400 mg/kg/day) was 0%, the Survivors/Total ([1]; 400 mg/kg/day) was 3/3 and the “Weight Change” value ([1]; 400 mg/kg/day) was “+6.6 grams”. For the same molecule, the “Kidney Damage (%)” value ([1]; 600 mg/kg/day) was 0%, the Survivors/Total ([1]; 600 mg/kg/day) was 3/3 and the “Weight Change” value ([1]; 600 mg/kg/day) was “+4.5 grams”. It also gave a survival ([2]; 100 mg/kg/day) of 100%, a survival ([2]; 200 mg/kg/day) of 100% and a survival ([2]; 400 mg/kg/day) of 100%. The survival ([2]; 600 mg/kg/day) was 100%, the “Mean Day to Death” value [3, 6] was 9.6 ± 4.6 days and the “Survivors (%)” value [3, 6] was 50%. For the same molecule, the Survivors/Total [3, 6] was 5/10, the “Mean Day to Death” value [3, 7] was 10.0 ± 3.6 days and the “Survivors (%)” value [3, 7] was 70%. For the same molecule, the Survivors/Total [3, 7] was 7/10, the “Mean Day to Death” value [3, 8] was 11.5 ± 0.7 days and the “Survivors (%)” value [3, 8] was 80%. The Survivors/Total [3, 8] was 8/10, the “Mean Day to Death” value [3, 9] was > 21 days and the “Survivors (%)” value [3, 9] was 100%. For the same molecule, the Survivors/Total [3, 10] was 10/10.

With `Nc1ncc2ncn(CO[C@@H]3CCP(=O)(O)OC3)c2n1` [Compound 1-6] the CC50 at 72 h [4] was 487 µg/mL (≈ 1630 µM), the “Number of Plaques” value ([5]; 1 μg/mL) was 51.0 and the “Number of Plaques” value ([5]; 3.2 μg/mL) was 56.0. The “Number of Plaques” value ([5]; 10 μg/mL) was 33.0, the “Number of Plaques” value ([5]; 32 μg/mL) was 6.5 and the “Number of Plaques” value ([5]; 100 μg/mL) was 0.0. The “Number of Plaques” value ([5]; 316 μg/mL) was 0.0, the “% Reduction (given as toxic)” value ([5]; 1000 μg/mL) was “toxic” and the “Number of Plaques (given as toxic)” value ([5]; 1000 μg/mL) was “toxic”. The “TI (therapeutic index, ratio of the median cytotoxic dose to the median effective dose)” value [5] was 73, the inhibition at 1 µg/mL ([5]; 1 μg/mL) was 37% and the inhibition at 3.2 µg/mL ([5]; 3.2 μg/mL) was 31%. The inhibition at 10 µg/mL ([5]; 10 μg/mL) was 59%, the inhibition at 32 µg/mL ([5]; 32 μg/mL) was 92% and the inhibition at 100 µg/mL ([5]; 100 μg/mL) was 100%. For the same molecule, the inhibition at 316 µg/mL ([5]; 316 μg/mL) was 100%, the EC50 [5] was 6.7 µg/mL (≈ 22.4 µM) and the “Mean Day to Death” value [3, 6] was 6.4 ± 0.5 days. For the same molecule, the “Survivors (%)” value [3, 6] was 0%, the Survivors/Total [3, 6] was 0/10 and the “Mean Day to Death” value [3, 7] was 7.4 ± 2.0 days. For the same molecule, the “Survivors (%)” value [3, 7] was 0%, the Survivors/Total [3, 7] was 0/10 and the “Mean Day to Death” value [3, 8] was 6.1 ± 0.4 days. For the same molecule, the “Survivors (%)” value [3, 8] was 30%, the Survivors/Total [3, 8] was 3/10 and the “Mean Day to Death” value [3, 9] was 8.3 ± 4.9 days. For the same molecule, the “Survivors (%)” value [3, 9] was 40% and the Survivors/Total [3, 10] was 4/10.

In the case of `Nc1nc2c(ncn2COC(CO)CO)c(=O)[nH]1` [DHPG, 9-[(1,3dihydroxy-2-propoxy)methyl] guanine, reference compound], the CC50 at 72 h [4] is reported as > 316 µg/mL, the “Number of Plaques” value ([5]; 1 μg/mL) is reported as 69.0 and the “Number of Plaques” value ([5]; 3.2 μg/mL) is reported as 57.0. The “Number of Plaques” value ([5]; 10 μg/mL) was 24.5, the “Number of Plaques” value ([5]; 32 μg/mL) was 2.0 and the “Number of Plaques” value ([5]; 100 μg/mL) was 0.0. For the same molecule, the “Number of Plaques” value ([5]; 316 μg/mL) was 0.0, the “TI (therapeutic index, ratio of the median cytotoxic dose to the median effective dose)” value [5] was > 44 and the inhibition at 1 µg/mL ([5]; 1 μg/mL) was 0%. For the same molecule, the inhibition at 3.2 µg/mL ([5]; 3.2 μg/mL) was 0%, the inhibition at 10 µg/mL ([5]; 10 μg/mL) was 70% and the inhibition at 32 µg/mL ([5]; 32 μg/mL) was 98%. The inhibition at 100 µg/mL ([5]; 100 μg/mL) was 100%, the inhibition at 316 µg/mL ([5]; 316 μg/mL) was 100% and the EC50 [5] was 7.2 µg/mL (≈ 28.2 µM).
